Reference: US10053428B2, “5-aminotetrahydroquinoline-2-carboxylic acids and their use” (BAYER PHARMA AKTIENGESELLSCHAFT, priority 2012, dated 2018)
Like-named read-outs stand apart in the source and are kept apart here.

How the values were obtained:
[1] = test system: saphenous artery rings; assay: Vasorelaxant effect in vitro (phenylephrine-contracted saphenous artery rings); design: species or system Rabbits; conditions: rabbit saphenous artery rings, read-out: IC50 (concentration reducing phenylephrine-induced contraction by 50%)
Protocol: B-3. Vasorelaxant Effect In Vitro
Rabbits are anaesthetized and sacrificed by intravenous injection of thiopental sodium (about 50 mg/kg) and exsanguinated. The saphenous artery is removed and divided into rings 3 mm wide. The rings are mounted singly on in each case a pair of triangular hooks open at the end and made of 0.3 mm-thick special wire (Remanium®). Each ring is placed under an initial tension in 5 ml organ baths with Krebs-Henseleit solution which is at 37° C., is gassed with carbogen and has the following composition: NaCl 119 mM; KCl 4.8 mM; CaCl2×2 H2O 1 mM; MgSO4×7H2O 1.4 mM; KH2PO4 1.2 mM; NaHCO3 25 mM; glucose 10 mM; bovine serum albumin 0.001%. The force of contraction is detected with Statham UC2 cells, amplified and digitized via A/D converters (DAS-1802 HC, Keithley Instruments, Munich) and recorded in parallel on chart recorders. Contractions are induced by addition of phenylephrine.
After several (generally 4) control cycles, the substance to be investigated is added in each further run in increasing dosage, and the level of the contraction achieved under the influence of the test substance is compared with the level of the contraction reached in the last preceding run. The concentration necessary to reduce the contraction reached in the preceding control by 50% is calculated from this (IC50). The standard application volume is 5 μl. The proportion of DMSO in the bath solution corresponds to 0.1%.

[2] = test system: recombinant guanylate cyclase reporter cell line; assay: sGC-activating activity in the CHO reporter cell in vitro; assay type: cell-based; conditions: read-out: MEC (minimum effective concentration)
Protocol: B-2. Action at a Recombinant Guanylate Cyclase Reporter Cell Line
The cellular action of the compounds according to the invention is determined at a recombinant guanylate cyclase reporter cell line, as described in F. Wunder et al., Anal. Biochem. 32, 104-112 (2005).

[3] = biological target: T1, haem-containing recombinant soluble guanylate cyclase (sGC) (Rattus norvegicus, UniProt P20595); assay: Stimulation of recombinant soluble guanylate cyclase (sGC) in vitro, haem-containing enzyme; assay type: biochemical
T1 construct: made in house; host or cells: Sf9 insect cells (baculovirus)
T1 sequence (P20595 1-619): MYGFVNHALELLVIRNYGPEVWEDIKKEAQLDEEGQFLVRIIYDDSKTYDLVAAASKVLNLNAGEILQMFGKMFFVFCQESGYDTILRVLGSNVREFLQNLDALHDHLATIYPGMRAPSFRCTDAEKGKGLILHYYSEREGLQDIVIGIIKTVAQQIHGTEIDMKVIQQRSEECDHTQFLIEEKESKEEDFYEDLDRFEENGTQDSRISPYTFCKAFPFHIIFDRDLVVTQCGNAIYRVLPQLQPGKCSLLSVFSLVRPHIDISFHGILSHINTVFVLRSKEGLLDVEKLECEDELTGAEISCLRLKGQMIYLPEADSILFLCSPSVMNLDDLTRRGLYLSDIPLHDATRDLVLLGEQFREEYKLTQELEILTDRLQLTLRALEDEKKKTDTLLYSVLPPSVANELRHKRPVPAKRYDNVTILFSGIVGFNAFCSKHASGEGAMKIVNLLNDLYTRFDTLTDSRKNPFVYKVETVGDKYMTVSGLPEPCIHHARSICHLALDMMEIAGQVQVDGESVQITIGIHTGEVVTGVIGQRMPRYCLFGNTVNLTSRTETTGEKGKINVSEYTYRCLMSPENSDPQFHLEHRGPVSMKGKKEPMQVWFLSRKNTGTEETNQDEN
T1 sequence (P19686 1-690 partner): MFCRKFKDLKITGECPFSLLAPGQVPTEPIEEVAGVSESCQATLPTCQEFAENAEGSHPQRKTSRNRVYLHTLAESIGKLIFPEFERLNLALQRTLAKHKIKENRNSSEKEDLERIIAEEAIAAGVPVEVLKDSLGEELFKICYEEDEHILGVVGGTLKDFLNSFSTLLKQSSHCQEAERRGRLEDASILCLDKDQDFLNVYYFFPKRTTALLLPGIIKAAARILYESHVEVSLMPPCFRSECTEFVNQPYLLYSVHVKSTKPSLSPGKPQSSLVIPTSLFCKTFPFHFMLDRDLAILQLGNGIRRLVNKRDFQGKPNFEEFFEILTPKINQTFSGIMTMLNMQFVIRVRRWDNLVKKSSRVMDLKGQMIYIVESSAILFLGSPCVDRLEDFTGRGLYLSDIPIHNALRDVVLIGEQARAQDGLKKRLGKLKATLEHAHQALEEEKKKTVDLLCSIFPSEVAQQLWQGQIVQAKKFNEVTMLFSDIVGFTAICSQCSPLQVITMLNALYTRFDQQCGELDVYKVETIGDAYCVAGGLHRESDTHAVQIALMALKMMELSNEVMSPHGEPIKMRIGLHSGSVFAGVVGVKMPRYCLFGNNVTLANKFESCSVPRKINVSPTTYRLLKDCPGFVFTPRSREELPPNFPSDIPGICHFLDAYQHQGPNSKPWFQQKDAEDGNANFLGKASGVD
Protocol: (§1) B-1. Stimulation of Recombinant Soluble Guanylate Cyclase (sGC) In Vitro
(§2) Investigations on the stimulation of recombinant soluble guanylate cyclase (sGC) by the compounds according to the invention with and without sodium nitroprusside, and with and without the haem-dependent sGC inhibitor 1H-1,2,4-oxadiazolo[4,3a]quinoxalin-1-one (ODQ), are carried out by the method described in detail in the following reference: M. Hoenicka, E. M. Becker, H. Apeler, T. Sirichoke, H. Schroeder, R. Gerzer and J.-P. Stasch, “Purified soluble guanylyl cyclase expressed in a baculovirus/Sf9 system: Stimulation by YC-1, nitric oxide, and carbon oxide”, J. Mol. Med 77 (1999), 14-23. The haem-free guanylate cyclase is obtained by adding Tween 20 to the sample buffer (0.5% in the final concentration).
The activation of sGC by a test substance is reported as x-fold stimulation of the basal activity. The result for Example 2 is shown in Table 1A, that for Example 23 in Table 1B and that for Example 39 in Table 1C:
[DEA/NO=2-(N,N-diethylamino)diazenolate 2-oxide; ODQ=1H-1,2,4-oxadiazolo-[4,3a]quinoxalin-1-one].

[4] = biological target: T2, haem-free recombinant soluble guanylate cyclase (sGC) (Rattus norvegicus, UniProt P20595); assay: Stimulation of recombinant soluble guanylate cyclase (sGC) in vitro, haem-free enzyme; assay type: biochemical
T2 construct: made in house; host or cells: Sf9 insect cells (baculovirus)
T2 sequence (P20595 1-619): T1 sequence (P20595 1-619)
T2 sequence (P19686 1-690 partner): T1 sequence (P19686 1-690 partner)
Protocol: as §1, §2
The activation of sGC by a test substance is reported as x-fold stimulation of the basal activity. The result for Example 2 is shown in Table 1A, that for Example 23 in Table 1B and that for Example 39 in Table 1C: […]

CC(C)(C)c1ccc(COc2ccccc2CCN(CCCCC(=O)O)C2CCCc3nc(C(=O)O)ccc32)cc1 (single isomer, unassigned) [Example 4]
IC50 ([1]; Oryctolagus cuniculus): 0.3 nM | minimal effective concentration [2]: 0.5 nM

O=C(O)CCCCN(CCc1ccccc1OCc1ccc(CCc2ccccc2)cc1)C1CCCc2nc(C(=O)O)ccc21 (single isomer, unassigned) [Example 14]
IC50 [1]: 41.8 nM | minimal effective concentration [2]: 30 nM

O=C(O)CCCCN(CCc1ccccc1OCc1ccc(CCc2ccc(F)cc2)cc1)C1CCCc2nc(C(=O)O)ccc21 (single isomer, unassigned) [Example 15]
IC50 [1]: 0.2 nM | minimal effective concentration [2]: 0.3 nM

O=C(O)CCCCN(CCc1ccccc1OCc1ccc(CCc2ccc(F)cc2)cc1)C1CCCc2nc(C(=O)O)ccc21 (single isomer, unassigned) [Example 16]
IC50 [1]: 15.5 nM | minimal effective concentration [2]: 3 nM

O=C(O)CCCCN(CCc1ccccc1OCc1ccc(-c2ccc(C(F)(F)F)cc2)cc1)C1CCCc2nc(C(=O)O)ccc21 (single isomer, unassigned) [Example 18]
IC50 ([1]; Oryctolagus cuniculus): 0.4 nM | minimal effective concentration [2]: 0.3 nM

Cc1ccc2oc(-c3ccc(COc4ccccc4CCN(CCCCC(=O)O)C4CCCc5nc(C(=O)O)ccc54)cc3)nc2c1 (single isomer, unassigned; enantiomer 1) [Example 1, (−)-5-{(4-Carboxybutyl)[2-(2-{[4-(5-methyl-1,3-benzoxazol-2-yl)benzyl]oxy}phenyl)ethyl]-amino}-5,6,7,8-tetrahydroquinoline-2-carboxylic acid (Enantiomer 1)]
IC50 [1]: 571 nM | minimal effective concentration [2]: 160 nM

O=C(O)c1ccc(CCN(CCc2ccccc2OCc2ccc(-c3ccc(C(F)(F)F)cc3)cc2Cl)C2CCCc3nc(C(=O)O)ccc32)cc1 (single isomer, unassigned; enantiomer 2) [Example 23, 5-{[2-(4-Carboxyphenyl)ethyl][2-(2-{[3-chloro-4′-(trifluoromethyl)biphenyl-4-yl]methoxy}-phenyl)ethyl]amino}-5,6,7,8-tetrahydroquinoline-2-carboxylic acid (Enantiomer 2)]
Effect of combination with the NO donor DEA/NO on sGC stimulation [3]: no synergistic effect | Stimulation (x-fold), haem-containing sGC, basal ([3]; test compound 0.01 μM): 8.3 ± 1.1 x-fold | Stimulation (x-fold), haem-containing sGC, +0.1 μM DEA/NO ([3]; test compound 0.01 μM): 24.5 ± 4.4 x-fold | Stimulation (x-fold), haem-containing sGC, +10 μM ODQ ([3]; test compound 0.01 μM): 16.9 ± 3.3 x-fold | Stimulation (x-fold), haem-containing sGC, basal ([3]; test compound 0.1 μM): 54.2 ± 11.9 x-fold | Stimulation (x-fold), haem-containing sGC, +0.1 μM DEA/NO ([3]; test compound 0.1 μM): 77.1 ± 9.2 x-fold | Stimulation (x-fold), haem-containing sGC, +10 μM ODQ ([3]; test compound 0.1 μM): 105.4 ± 18.0 x-fold | Stimulation (x-fold), haem-containing sGC, basal ([3]; test compound 1.0 μM): 108.7 ± 16.3 x-fold | Stimulation (x-fold), haem-containing sGC, +0.1 μM DEA/NO ([3]; test compound 1.0 μM): 155.2 ± 20.7 x-fold | Stimulation (x-fold), haem-containing sGC, +10 μM ODQ ([3]; test compound 1.0 μM): 216.1 ± 28.9 x-fold | Stimulation (x-fold), haem-containing sGC, basal ([3]; test compound 10 μM): 135.7 ± 20.0 x-fold | Stimulation (x-fold), haem-containing sGC, +0.1 μM DEA/NO ([3]; test compound 10 μM): 180.4 ± 22.9 x-fold | Stimulation (x-fold), haem-containing sGC, +10 μM ODQ ([3]; test compound 10 μM): 227.0 ± 31.7 x-fold | Stimulation (x-fold), haem-containing sGC, basal ([3]; test compound 100 μM): 180.5 ± 21.2 x-fold | Stimulation (x-fold), haem-containing sGC, +0.1 μM DEA/NO ([3]; test compound 100 μM): 241.0 ± 34.4 x-fold | Stimulation (x-fold), haem-containing sGC, +10 μM ODQ ([3]; test compound 100 μM): 261.7 ± 32.1 x-fold | minimal effective concentration [2]: 0.7 nM | Stimulation (x-fold), haem-free sGC, basal ([4]; test compound 0.01 μM): 52.5 ± 3.8 x-fold | Stimulation (x-fold), haem-free sGC, basal ([4]; test compound 0.1 μM): 184.3 ± 15.4 x-fold | Stimulation (x-fold), haem-free sGC, basal ([4]; test compound 1.0 μM): 284.7 ± 18.8 x-fold | Stimulation (x-fold), haem-free sGC, basal ([4]; test compound 10 μM): 310.4 ± 22.6 x-fold | Stimulation (x-fold), haem-free sGC, basal ([4]; test compound 100 μM): 342.0 ± 27.6 x-fold

O=C(O)c1ccc(CCN(CCc2cc(F)ccc2OCc2ccc(-c3nc4cc(Cl)ccc4o3)cc2)C2CCCc3nc(C(=O)O)ccc32)cc1 (single isomer, unassigned; enantiomer 2) [Example 39, 5-{[2-(4-Carboxyphenyl)ethyl][2-(2-{[4-(5-chloro-1,3-benzoxazol-2-yl)benzyl]oxy}-5-fluorophenyl)ethyl]amino}-5,6,7,8-tetrahydroquinoline-2-carboxylic acid (Enantiomer 2)]
Effect of combination with the NO donor DEA/NO on sGC stimulation [3]: no synergistic effect | Stimulation (x-fold), haem-containing sGC, basal ([3]; test compound 0.01 μM): 17.4 ± 2.4 x-fold | Stimulation (x-fold), haem-containing sGC, +0.1 μM DEA/NO ([3]; test compound 0.01 μM): 46.5 ± 2.8 x-fold | Stimulation (x-fold), haem-containing sGC, +10 μM ODQ ([3]; test compound 0.01 μM): 42.0 ± 4.9 x-fold | Stimulation (x-fold), haem-containing sGC, basal ([3]; test compound 0.1 μM): 73.0 ± 7.7 x-fold | Stimulation (x-fold), haem-containing sGC, +0.1 μM DEA/NO ([3]; test compound 0.1 μM): 115.5 ± 11.9 x-fold | Stimulation (x-fold), haem-containing sGC, +10 μM ODQ ([3]; test compound 0.1 μM): 145.6 ± 14.7 x-fold | Stimulation (x-fold), haem-containing sGC, basal ([3]; test compound 1.0 μM): 96.6 ± 8.5 x-fold | Stimulation (x-fold), haem-containing sGC, +0.1 μM DEA/NO ([3]; test compound 1.0 μM): 145.2 ± 15.9 x-fold | Stimulation (x-fold), haem-containing sGC, +10 μM ODQ ([3]; test compound 1.0 μM): 182.5 ± 17.6 x-fold | Stimulation (x-fold), haem-containing sGC, basal ([3]; test compound 10 μM): 108.6 ± 9.0 x-fold | Stimulation (x-fold), haem-containing sGC, +0.1 μM DEA/NO ([3]; test compound 10 μM): 159.4 ± 17.9 x-fold | Stimulation (x-fold), haem-containing sGC, +10 μM ODQ ([3]; test compound 10 μM): 188.7 ± 16.5 x-fold | Stimulation (x-fold), haem-containing sGC, basal ([3]; test compound 100 μM): 143.6 ± 13.4 x-fold | Stimulation (x-fold), haem-containing sGC, +0.1 μM DEA/NO ([3]; test compound 100 μM): 192.1 ± 24.6 x-fold | Stimulation (x-fold), haem-containing sGC, +10 μM ODQ ([3]; test compound 100 μM): 208.5 ± 19.0 x-fold | minimal effective concentration [2]: 1 nM | Stimulation (x-fold), haem-free sGC, basal ([4]; test compound 0.01 μM): 39.0 ± 5.8 x-fold | Stimulation (x-fold), haem-free sGC, basal ([4]; test compound 0.1 μM): 176.9 ± 29.9 x-fold | Stimulation (x-fold), haem-free sGC, basal ([4]; test compound 1.0 μM): 284.9 ± 54.5 x-fold | Stimulation (x-fold), haem-free sGC, basal ([4]; test compound 10 μM): 311.5 ± 55.9 x-fold | Stimulation (x-fold), haem-free sGC, basal ([4]; test compound 100 μM): 309.4 ± 54.8 x-fold
